From patent US20230292746A1, “MIXTURES AND COMPOSITIONS COMPRISING 5-FLUORO-4-IMINO-3- METHYL-1-TOSYL-3,4-DIHYDROPYRIMIDIN-2-ONE, AND METHODS OF USE THEREOF” (Adama Makhteshim Ltd., priority 2020, published 2023)
Where “and” joins values, the source holds several entries; their conditions need not be identical. Equal entries are not always repeated.

Assays:
[1] = system: Zymoseptoria tritici strain Mg Tri-R6; test: Fungicidal efficacy on treated wheat leaves inoculated with Z. tritici (AUDPC, intensity of infection); type: in vivo; details: 21 dpi
Description: Wheat crop (Winter wheat plants cv. Alixan (Limagrain) at the BBCH 12 growth stage) was treated with compositions comprising the compound of Formula I and adjuvants in different concentrations as built-in composition and/or as tank mix application.
All the tested compositions and mixtures were prepared in a volume of water corresponding to 200 L/ha and used 3 hours after preparation.
The SC composition of Example 1 was mixed with Trycol® (0.2 or 0.4 L per hectare) or Silwet (0.01 L per hectare) which were added as tank mix in 200 L volume of water.
The compositions and mixtures were applied with a hand sprayer at operating pressure of 2 bars. Three replicates (pots) of 6 wheat plants each were used for each condition tested.
After treatment, wheat plants were left to dry at room temperature for 1 hour and then incubated in a climatic chamber: Temperature of 24° C. day/18° C. night—Photoperiod of 16 h light/8 h dark and a Relative Humidity of 65%.
Fragments of the first leaf are cut and transferred in Petri dish containing adapted water agar (6 leaf fragments per Petri dish). Fragments are inoculated with a calibrated pycnospores suspension of Z. tritici strain Mg Tri-R6. […]
After incubation time of 21 days, the intensity of the infection, which is the surface of colonized leaf by Z. tritici strain, is assessed (quantitative criteria). The fungicidal efficacy on each composition is then determined in percent of the untreated control. […]
Disease assessments were carried out 21 days post inoculation (dpi) by measuring the length of the necrosis of the leaf fragment. The intensity of infection was then determined in percent of the total length of the leaf fragment.
The efficacy was calculated based on the Area Under the Disease Progress Curve (AUDPC) which is a quantitative measure of disease intensity over time. […]
The fungicide efficacies were determined from the AUDPC values and expressed in percent of the untreated control.

[2] = Storage stability: concentration / degradation of compound of Formula I in composition; type: physicochemical; details: for 2W/54° C. analysis (% of 10° C.): non-aqueous composition, 2 weeks at 54° C.
Description: As used herein, the term “stable” when used in connection with chemical stability, e.g. chemically stable, means that the composition meets the chemical stability standards set forth by the Food and Agriculture Organization of the United Nations (FAO) in the Manual on Development and Use of FAO and WHO Specification for Pesticides (First Edition—Third Revision) (the “FAO/WHO Manual”) (available at http://www.fao.org/agriculture/crops/thematic-sitemap/theme/pests/jmps/manual/en/), the entire content of which is hereby incorporate by reference into the subject application. […] The amount of degradation permitted before the degradation is considered to be significant depends on the concentration of the active ingredients in the composition.
The physical and chemical stability of composition of Example 1 were tested under various conditions including CIPAC conditions.

[3] = Water content of composition; type: physicochemical; details: non-aqueous composition
Description: As used herein, the term “water content” when used in connection with a composition, a mixture, or a component in the composition or mixture refers to the amount of free water in the composition, mixture or component of the composition or mixture and the water molecules chemically bound to another compound, such as water molecules in a hydrate.

[4] = 20% Hydrate and 80% Form I Polymorph
[5] = 45% Hydrate, and 55% Form I Polymorph

SMILES | fungicidal efficacy compared to application without adjuvant ([1]; SC composition tank mixed with Silwet® (0.01 L/ha), wheat cv. Alixan) | fungicidal efficacy compared to application without adjuvant ([1]; SC composition tank mixed with Trycol® (0.2 or 0.4 L/ha), wheat cv. Alixan) | fungicidal efficacy compared to application without adjuvant ([1]; two adjuvants: Silwet® or Agnique® BP 420 with PVP or VP/VA, 10 g a.i./ha) | degradation of the compound of Formula I ([2]; 8 weeks of storage at 40° C., with Attagel 50 (0.5%) and Bentone SD-1 (0.5%)) [%] | degradation of the compound of Formula I ([2]; 8 weeks of storage at 40° C., without Attagel 50 and Bentone SD-1) | degradation of the compound of Formula I ([2]; non-aqueous composition with water scavenger) [%] | degradation of the compound of Formula I ([2]; non-aqueous composition without water scavenger) | 2W/54° C. analysis (% of 10° C.) [2, 4] | 2W/54° C. analysis (% of 10° C.) [2, 5] | % Water Content [3, 4] | % Water Content [3, 5] [%]
Cc1ccc(S(=O)(=O)n2cc(F)c(=N)n(C)c2=O)cc1 [compound of Formula I, 5-fluoro-4-imino-3-methyl-1-tosyl-3,4-dihydropyrimidin-2(1H)-one] | increased the efficacy and the effective fungicidal activity | increased the efficacy and the effective fungicidal activity | increased the efficacy and the effective fungicidal activity | 4 | 7-8% | ≤ 5 | 5-10% | – | – | – | –
Cc1ccc(S(=O)(=O)n2cc(F)c(=N)n(C)c2=O)cc1 [Hydrate I, 5-fluoro-4-imino-3-methyl-1-tosyl-3,4-dihydropyrimidin-2(1H)-one] | – | – | – | – | – | – | – | 88.5 % of 10 °C and 88.7 % of 10 °C | 89.3 % of 10 °C and 88.6 % of 10 °C | 0.24% and 0.22% | 0.35
